The test system of this assay is immortalized brown adipocytes. Nature of the assay: Global gene expression analysis (microarray, DAVID functional annotation) in immortalized brown adipocytes. It is filed as cell-based, mouse. The protocol:
Mouse RNA levels were measured by qPCR according to known methods. Data were normalized to B2m and Tbp reference genes. Human RNA was extracted using an RNA Mini Plus kit (Zymo) and gene expression determined by Taqman assay. The 1-step qPCR was run on a QuantStudio 12K Flex Real Time PCR System (ThermoFisher) using the following protocol: 50° C. for 5 minutes, 95° C. for 20 seconds, 40 cycles of 95° C. for 15 seconds and 60° C. for 60 seconds. Data were normalized to PPIA and PSMB2 reference genes. For global gene expression analysis, RNA isolated from brown adipocytes treated with compounds as indicated (four biological replicates) was hybridized to Illumina mouse Ref 8 V2.0 bead chips at the University of California, Los Angeles Neuroscience Genomics Core as previously described. Data were processed with GenomeStudio V2011.1 using the quantile normalization, background subtraction, and a present call of P<0.05.
To assess the effects of Z160 on global transcription in mouse brown adipocytes, microarray analysis of RNA isolated from immortalized brown adipocytes treated with either vehicle or Z160 was performed. […] The results of the microarray were corroborated using qPCR for representative genes from each electron transport chain complex (FIG. 5B).

The mark [1] stands for this setting: genes >1.5-fold down-regulated, DAVID.
Setting [2] is: genes >1.5-fold up-regulated, DAVID.

In the case of `COc1ccc(NC(=O)CSc2nc3ccccc3c(=O)[nH]2)c(OC)c1` [Z160], under setting [1], the “Genes, GO cellular component Down: Basement membrane” value turned out to be 17; the “Genes, GO cellular component Down: Cell surface” value worked out at 45; the “Genes, GO cellular component Down: Cytoplasm” value is 178; the “Genes, GO cellular component Down: Extracellular exosome” value is 119. Further, under setting [1], the “Genes, GO cellular component Down: Extracellular region” value turned out to be 86; the “Genes, GO cellular component Down: Extracellular space” value is given as 72; the “Genes, GO cellular component Down: Focal adhesion” value is 25; the “Genes, GO cellular component Down: Proteinaceous extracellular matrix” value came out at 35. Moreover, under setting [2], the “Genes, GO cellular component Up: Mitochondrial inner membrane” value was 27 and the “Genes, GO cellular component Up: Mitochondrion” value is 88. Further, for the setting “microarray, vs vehicle”, the “Ucp1 increase (microarray)” value amounted to 2.5 fold, the “probes down-regulated by at least 1.5-fold” value is recorded as 504 probes and the “probes up-regulated by at least 1.5-fold” value is 581 probes.
